Experiments:
Assay in all cases: relative viability (nuclei count vs DMSO), 5 days (fraction); higher = more cells survive
NCI-H2126 = tested on: NCI-H2126
Method in brief: (§1)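 Dosing by pin tool came one day after lung cancer cell lines were seeded in 1536-well plates, using either one drug or a fixed anchor-drug dose plus five library-drug doses (not always all listed) in √10 steps. After 5 days, nuclei were counted on 4× images. Relative viability is treated-well nuclei count divided by vehicle-well nuclei count, and values are medians of duplicate plates.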

NCI-H23 = tested on: NCI-H23
Method in brief: as §1

SW 1573 = tested on: SW 1573
Method in brief: as §1

LU99A = tested on: LU99A
Method in brief: as §1

NCI-H3122 = tested on: NCI-H3122
Method in brief: as §1

LOU-NH91 = tested on: LOU-NH91
Method in brief: as §1

SW 900 = tested on: SW 900
Method in brief: as §1

NCI-H1666 = tested on: NCI-H1666
Method in brief: as §1

LK-2 = tested on: LK-2
Method in brief: as §1

ChaGo-K-1 = tested on: ChaGo-K-1
Method in brief: as §1

EMC-BAC-2 = tested on: EMC-BAC-2
Method in brief: as §1

RERF-LC-KJ = tested on: RERF-LC-KJ
Method in brief: as §1

SK-LU-1 = tested on: SK-LU-1
Method in brief: as §1

HCC-827 = tested on: HCC-827
Method in brief: as §1

EPLC-272H = tested on: EPLC-272H
Method in brief: as §1

HCC-78 = tested on: HCC-78
Method in brief: as §1

LXF-289 = tested on: LXF-289
Method in brief: as §1

NCI-H2405 = tested on: NCI-H2405
Method in brief: as §1

NCI-H2085 = tested on: NCI-H2085
Method in brief: as §1

LCLC-103H = tested on: LCLC-103H
Method in brief: as §1

NCI-H322M = tested on: NCI-H322M
Method in brief: as §1

NCI-H1975 = tested on: NCI-H1975
Method in brief: as §1

CC1(C)CCC(c2ccc(Cl)cc2)=C(CN2CCN(c3ccc(C(=O)NS(=O)(=O)c4ccc(N[C@H](CCN5CCOCC5)CSc5ccccc5)c(S(=O)(=O)C(F)(F)F)c4)cc3)CC2)C1 [Navitoclax] + Nc1ncn([C@H]2C[C@H](O)[C@@H](CO)O2)c(=O)n1 [Decitabine] (partner 2 µM)
relative viability (NCI-H2126; first compound 0.005 µM): 0.595 | relative viability (NCI-H2126; first compound 0.01581 µM): 0.647 | relative viability (NCI-H2126; first compound 0.05 µM): 0.522 | relative viability (NCI-H2126; first compound 0.1581 µM): 0.547 | relative viability (NCI-H2126; first compound 0.5 µM): 0.564 | relative viability (NCI-H23; first compound 0.005 µM): 0.287 | relative viability (NCI-H23; first compound 0.01581 µM): 0.32 | relative viability (NCI-H23; first compound 0.05 µM): 0.307 | relative viability (NCI-H23; first compound 0.1581 µM): 0.331 | relative viability (NCI-H23; first compound 0.5 µM): 0.272 | relative viability (SW 1573; first compound 0.005 µM): 0.498 | relative viability (SW 1573; first compound 0.01581 µM): 0.683 | relative viability (SW 1573; first compound 0.05 µM): 0.387 | relative viability (SW 1573; first compound 0.1581 µM): 0.386 | relative viability (SW 1573; first compound 0.5 µM): 0.364 | relative viability (LU99A; first compound 0.005 µM): 0.876 | relative viability (LU99A; first compound 0.01581 µM): 0.977 | relative viability (LU99A; first compound 0.1581 µM): 0.921 | relative viability (LU99A; first compound 0.5 µM): 0.989 | relative viability (NCI-H3122; first compound 0.005 µM): 0.407 | relative viability (NCI-H3122; first compound 0.01581 µM): 0.446 | relative viability (NCI-H3122; first compound 0.05 µM): 0.471 | relative viability (NCI-H3122; first compound 0.1581 µM): 0.433 | relative viability (NCI-H3122; first compound 0.5 µM): 0.444 | relative viability (LOU-NH91; first compound 0.005 µM): 0.798 | relative viability (LOU-NH91; first compound 0.01581 µM): 0.88 | relative viability (LOU-NH91; first compound 0.05 µM): 0.79 | relative viability (LOU-NH91; first compound 0.1581 µM): 0.711 | relative viability (LOU-NH91; first compound 0.5 µM): 0.391 | relative viability (SW 900; first compound 0.005 µM): 0.406 | relative viability (SW 900; first compound 0.01581 µM): 0.412 | relative viability (SW 900; first compound 0.1581 µM): 0.445 | relative viability (SW 900; first compound 0.5 µM): 0.262 | relative viability (NCI-H1666; first compound 0.005 µM): 0.781 | relative viability (NCI-H1666; first compound 0.01581 µM): 0.759 | relative viability (NCI-H1666; first compound 0.05 µM): 0.628 | relative viability (NCI-H1666; first compound 0.1581 µM): 0.692 | relative viability (NCI-H1666; first compound 0.5 µM): 0.765 | relative viability (LK-2; first compound 0.005 µM): 0.295 | relative viability (LK-2; first compound 0.01581 µM): 0.279 | relative viability (LK-2; first compound 0.05 µM): 0.235 | relative viability (LK-2; first compound 0.1581 µM): 0.267 | relative viability (LK-2; first compound 0.5 µM): 0.4 | relative viability (ChaGo-K-1; first compound 0.005 µM): 0.498 | relative viability (ChaGo-K-1; first compound 0.01581 µM): 0.549 | relative viability (ChaGo-K-1; first compound 0.05 µM): 0.392 | relative viability (ChaGo-K-1; first compound 0.1581 µM): 0.498 | relative viability (ChaGo-K-1; first compound 0.5 µM): 0.52 | relative viability (EMC-BAC-2; first compound 0.005 µM): 0.943 | relative viability (EMC-BAC-2; first compound 0.01581 µM): 1.03 | relative viability (EMC-BAC-2; first compound 0.05 µM): 0.963 | relative viability (EMC-BAC-2; first compound 0.1581 µM): 0.915 | relative viability (EMC-BAC-2; first compound 0.5 µM): 0.911 | relative viability (RERF-LC-KJ; first compound 0.005 µM): 0.834 | relative viability (RERF-LC-KJ; first compound 0.01581 µM): 0.55 | relative viability (RERF-LC-KJ; first compound 0.05 µM): 0.669 | relative viability (RERF-LC-KJ; first compound 0.1581 µM): 0.733 | relative viability (RERF-LC-KJ; first compound 0.5 µM): 0.708 | relative viability (SK-LU-1; first compound 0.005 µM): 0.577 | relative viability (SK-LU-1; first compound 0.01581 µM): 0.577 | relative viability (SK-LU-1; first compound 0.05 µM): 0.389 | relative viability (SK-LU-1; first compound 0.1581 µM): 0.609 | relative viability (SK-LU-1; first compound 0.5 µM): 0.469 | relative viability (HCC-827; first compound 0.005 µM): 0.364 | relative viability (HCC-827; first compound 0.01581 µM): 0.325 | relative viability (HCC-827; first compound 0.05 µM): 0.314 | relative viability (HCC-827; first compound 0.1581 µM): 0.327 | relative viability (HCC-827; first compound 0.5 µM): 0.31 | relative viability (EPLC-272H; first compound 0.005 µM): 0.346 | relative viability (EPLC-272H; first compound 0.05 µM): 0.377 | relative viability (EPLC-272H; first compound 0.1581 µM): 0.302 | relative viability (EPLC-272H; first compound 0.5 µM): 0.38 | relative viability (HCC-78; first compound 0.005 µM): 0.759 | relative viability (HCC-78; first compound 0.01581 µM): 0.732 | relative viability (HCC-78; first compound 0.05 µM): 0.605 | relative viability (HCC-78; first compound 0.1581 µM): 0.636 | relative viability (HCC-78; first compound 0.5 µM): 0.798 | relative viability (LXF-289; first compound 0.005 µM): 0.347 | relative viability (LXF-289; first compound 0.01581 µM): 0.389 | relative viability (LXF-289; first compound 0.05 µM): 0.349 | relative viability (LXF-289; first compound 0.1581 µM): 0.349 | relative viability (LXF-289; first compound 0.5 µM): 0.428 | relative viability (NCI-H2405; first compound 0.005 µM): 0.75 | relative viability (NCI-H2405; first compound 0.01581 µM): 0.812 | relative viability (NCI-H2405; first compound 0.05 µM): 0.885 | relative viability (NCI-H2405; first compound 0.1581 µM): 0.717 | relative viability (NCI-H2405; first compound 0.5 µM): 0.771 | relative viability (NCI-H2085; first compound 0.005 µM): 0.612 | relative viability (NCI-H2085; first compound 0.01581 µM): 0.695 | relative viability (NCI-H2085; first compound 0.05 µM): 0.474 | relative viability (NCI-H2085; first compound 0.1581 µM): 0.579 | relative viability (NCI-H2085; first compound 0.5 µM): 0.562 | relative viability (LCLC-103H; first compound 0.005 µM): 0.701 | relative viability (LCLC-103H; first compound 0.01581 µM): 0.879 | relative viability (LCLC-103H; first compound 0.05 µM): 0.764 | relative viability (LCLC-103H; first compound 0.1581 µM): 0.703 | relative viability (LCLC-103H; first compound 0.5 µM): 0.698 | relative viability (NCI-H322M; first compound 0.005 µM): 0.722 | relative viability (NCI-H322M; first compound 0.01581 µM): 0.863 | relative viability (NCI-H322M; first compound 0.05 µM): 0.703 | relative viability (NCI-H322M; first compound 0.1581 µM): 0.655 | relative viability (NCI-H322M; first compound 0.5 µM): 0.725 | relative viability (NCI-H1975; first compound 0.005 µM): 0.432 | relative viability (NCI-H1975; first compound 0.01581 µM): 0.392 | relative viability (NCI-H1975; first compound 0.05 µM): 0.261 | relative viability (NCI-H1975; first compound 0.1581 µM): 0.416 | relative viability (NCI-H1975; first compound 0.5 µM): 0.29
